Measurements reported in patent publication US8247377B2, “Non-steroidal glucocorticoid inhibitors and their use in treating inflammation, allergy and auto-immune conditions” (Glaxo Group Limited, priority 2006, dated 2012).

Tests used:
NFκB = NFκB agonist assay in A549 SPAP cells; format: cell-based; conditions: Homo sapiens; A549 SPAP cells, TNFα 3.2 ng/ml; read-out: pIC50 for the NFkB assay (converted)
Description: Human lung carcinoma A549 cell line (ECACC No. 86012804) has been stably transfected in house with a plasmid containing an ELAM promoter sequence that has a NFκB response element within it. Stimulation of the cell line with TNFα results in intracellular signal transduction and ultimately translocation of NFκB into the nucleus. This activates the inserted DNA sequence resulting in transcription of the integrated SPAP gene, which is quantified using a colorimetric assay. […] The stably transfected cell line was grown as a monolayer in DMEM supplemented with FCS-HI (10%), Non-essential amino acids (1%), L-Glutamine (2 mM), Pen/Strep (1%) and Geneticin (50 mg/ml).
A 70% confluent T225 flask of A549 SPAP cells was harvested by centrifugation for 5 min at 200 g, resuspended in assay buffer (DMEM supplemented with 10% FCS 2×HI, 2 mM L-Glutamine, 1% Pen/Strep and Non essential amino acids) and diluted to 0.16×10^6/ml. 60 μl of cell solution was dispensed to each well of clear Nunc 384-well plates, containing compound at the required concentration. Plates were incubated for 1 h at 37° C., 95% humidity, 5% CO2 before 10 μl of TNFα was added at final concentration of 3.2 ng/ml and then returned to the cell incubator for 15 h. Plates were equilibrated to room temperature for 1 h prior to the addition of 25 μl of pNPP buffer (1M Diethanolamine pH 9.8, 0.5 mM MgCl2, 0.28M NaCl, 2 mg/ml pNPP) to each well of assay plates. The plates were covered to protect the reagents from light, and then incubated at room temperature for approximately 1 hour before reading them on an Ascent using a 405 nm single filter. Dose response curves were constructed from which pIC50 values were estimated.

[1] = Assay for brain penetrance; format: in vivo; conditions: brain and plasma, rat, single intravenous dose 1 mg/kg, read-out: brain to plasma ratio
Method: Each rat received a single intravenous dose at a level of 1 mg/kg. The dose was formulated in 10% DMSO/50% PEG200/40% sterile water. Terminal blood samples were taken at 5 or 15 minutes after dosing, by cardiac puncture following anaesthesia with isofluorane. The brains were removed at the same time point.
The compounds were extracted from 20 μL plasma by protein precipitation using 120 μL acetonitrile containing an analogue compound as an internal standard. The filtered extracts were collected into a 96 well plate and were diluted with an equal volume of 10% acetonitrile containing 0.1% formic acid in water (v/v). The plate was then mixed on a plate shaker for at least 5 minutes before analysis by LC-MS/MS against a calibration line prepared in control plasma.
Each brain was weighed, then homogenised in 3 ml acetonitrile:water (10:90 v/v). The compounds were extracted from 200 μL of the resulting homogenate by protein precipitation using 600 μL acetonitrile containing an analogue compound as an internal standard. The extracts were centrifuged and 150 μl of each was filtered and transferred to a 96 well plate. The aliquot was diluted with 10% acetonitrile containing 0.1% formic acid in water (v/v). The plate was mixed on a plate shaker for at least 5 minutes before analysis by LC-MS/MS against a calibration line prepared in control brain homogenate.

glucocorticoid receptor = target: T1, glucocorticoid receptor (Homo sapiens, UniProt P04150); experiment: Glucocorticoid receptor binding assay (fluorescence polarisation); conditions: competition with Alexa 555 fluorescently-labelled dexamethasone derivative, full length glucocorticoid receptor; read-out: glucocorticoid binding pIC50 (converted)
T1 construct: a partially purified full length glucocorticoid receptor
T1 sequence (P04150 1-777): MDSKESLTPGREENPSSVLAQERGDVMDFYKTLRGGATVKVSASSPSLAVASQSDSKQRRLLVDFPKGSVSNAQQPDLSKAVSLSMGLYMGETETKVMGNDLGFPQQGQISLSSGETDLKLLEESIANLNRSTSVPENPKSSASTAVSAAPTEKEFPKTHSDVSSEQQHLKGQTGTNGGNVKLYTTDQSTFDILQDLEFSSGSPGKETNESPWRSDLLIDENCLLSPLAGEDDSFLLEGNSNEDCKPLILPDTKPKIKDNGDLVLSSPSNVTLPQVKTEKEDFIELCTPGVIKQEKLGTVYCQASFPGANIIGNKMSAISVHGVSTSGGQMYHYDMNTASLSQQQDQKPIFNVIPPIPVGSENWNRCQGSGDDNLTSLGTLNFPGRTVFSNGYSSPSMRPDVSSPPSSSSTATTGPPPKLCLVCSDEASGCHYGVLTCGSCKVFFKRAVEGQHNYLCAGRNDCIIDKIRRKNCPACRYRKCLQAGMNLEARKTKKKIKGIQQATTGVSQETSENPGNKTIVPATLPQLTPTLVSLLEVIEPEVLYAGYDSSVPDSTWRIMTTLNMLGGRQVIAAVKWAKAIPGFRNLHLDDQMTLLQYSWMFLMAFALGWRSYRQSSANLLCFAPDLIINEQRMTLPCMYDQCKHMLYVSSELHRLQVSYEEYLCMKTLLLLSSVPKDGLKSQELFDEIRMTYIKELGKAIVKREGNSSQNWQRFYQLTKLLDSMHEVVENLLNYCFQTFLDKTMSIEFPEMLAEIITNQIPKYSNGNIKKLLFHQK
Method: Compounds were solvated and diluted in DMSO, and transferred directly into assay plates. Fluorescent dexamethasone and a partially purified full length glucocorticoid receptor were added to the plates, together with buffer components to stabilise the GR protein and incubated at room temperature for 2 hrs in the dark. Binding of each compound was assessed by analysing the displacement of fluorescent ligand by measuring the decrease in fluorescence polarisation signal from the mixture. Dose response curves were constructed from which pIC50 values were estimated.

progesterone receptor = target: T2, progesterone receptor (Homo sapiens, UniProt P06401); experiment: Assay for progesterone receptor activity (CV-1 cells, PRb-BacMam/MMTV-BacMam); format: cell-based; conditions: CV-1 cells transduced with PRb-BacMam and MMTV-BacMam; read-out: pEC50 progesterone receptor activity (converted)
T2 construct: expressed in transfected cells; host or cells: CV-1 cells transduced with PRb-BacMam and MMTV-BacMam
T2 sequence (P06401 1-933): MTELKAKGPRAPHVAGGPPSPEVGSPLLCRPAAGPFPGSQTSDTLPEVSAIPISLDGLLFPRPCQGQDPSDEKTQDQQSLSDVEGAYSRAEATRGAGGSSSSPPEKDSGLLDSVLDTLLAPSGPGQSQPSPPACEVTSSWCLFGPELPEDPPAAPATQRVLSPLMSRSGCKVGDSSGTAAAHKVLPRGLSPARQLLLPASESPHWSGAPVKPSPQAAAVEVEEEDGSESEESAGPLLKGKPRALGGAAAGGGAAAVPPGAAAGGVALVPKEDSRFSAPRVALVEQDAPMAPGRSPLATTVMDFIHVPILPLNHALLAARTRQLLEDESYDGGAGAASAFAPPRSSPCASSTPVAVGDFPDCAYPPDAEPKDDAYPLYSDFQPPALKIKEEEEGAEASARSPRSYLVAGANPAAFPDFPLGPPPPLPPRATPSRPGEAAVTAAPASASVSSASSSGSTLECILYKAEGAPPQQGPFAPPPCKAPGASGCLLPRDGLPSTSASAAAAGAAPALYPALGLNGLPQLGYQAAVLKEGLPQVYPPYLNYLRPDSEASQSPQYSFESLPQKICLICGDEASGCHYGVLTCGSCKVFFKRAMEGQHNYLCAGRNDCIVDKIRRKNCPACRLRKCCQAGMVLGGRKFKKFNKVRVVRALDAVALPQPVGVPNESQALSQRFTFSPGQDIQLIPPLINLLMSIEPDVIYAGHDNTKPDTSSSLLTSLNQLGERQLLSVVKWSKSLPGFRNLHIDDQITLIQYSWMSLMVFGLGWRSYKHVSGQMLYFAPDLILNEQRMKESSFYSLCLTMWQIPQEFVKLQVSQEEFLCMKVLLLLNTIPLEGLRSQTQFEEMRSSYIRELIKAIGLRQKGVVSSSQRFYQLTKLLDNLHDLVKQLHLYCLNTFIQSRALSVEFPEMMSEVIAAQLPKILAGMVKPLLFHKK
Method: A T225 flask of CV-1 cells at a density of 80% confluency was washed with PBS, detached from the flask using 0.25% trypsin and counted using a Sysmex KX-21N. Cells were diluted in DMEM containing 10% Hyclone, 2 mM L-Glutamate and 1% Pen/Strep at 140 cells/μl and transduced with 10% PRb-BacMam and 10% MMTV-BacMam. […] of suspension cells were dispensed to each well of white Nunc 384-well plates, containing compounds at the required concentration. After 24 h 10 μl of Steadylite were added to each well of the plates. Plates were incubated in the dark for 10 min before reading them on a Viewlux reader. Dose response curves were constructed from which pEC50 values were estimated.

For CN(CC(O)(CNC(=O)c1cnn(-c2ccc(F)cc2)c1N)C(F)(F)F)C(=O)c1c(Cl)cccc1Cl (single isomer, unassigned) [Example 1 Enantiomer 1, 5-Amino-N-(2-{[[(2,6-dichlorophenyl)carbonyl](methyl)amino]methyl}-3,3,3-trifluoro-2-hydroxypropyl)-1-(4-fluorophenyl)-1H-pyrazole-4-carboxamide], which IC50 (NFκB) is on record?
The IC50 was less than 1 µM.

And the Kp at 5 min [1]?
Its Kp at 5 min is no less than 0.1.

And the IC50 (glucocorticoid receptor)?
The IC50 was no more than 0.316 µM.

What about the EC50 (progesterone receptor) of the same compound?
Its EC50 is greater than 1 µM.
